Assay results: ChEMBL document CHEMBL3217715, “Are pyridazines privileged structures?” (Medchemcomm, 2011)

Molecular target: D(2) dopamine receptor (Homo sapiens, UniProt P14416)
Assay: Antagonist activity at dopamine D2 receptor (unknown origin)

Chain of D(2) dopamine receptor (P14416 whole entry): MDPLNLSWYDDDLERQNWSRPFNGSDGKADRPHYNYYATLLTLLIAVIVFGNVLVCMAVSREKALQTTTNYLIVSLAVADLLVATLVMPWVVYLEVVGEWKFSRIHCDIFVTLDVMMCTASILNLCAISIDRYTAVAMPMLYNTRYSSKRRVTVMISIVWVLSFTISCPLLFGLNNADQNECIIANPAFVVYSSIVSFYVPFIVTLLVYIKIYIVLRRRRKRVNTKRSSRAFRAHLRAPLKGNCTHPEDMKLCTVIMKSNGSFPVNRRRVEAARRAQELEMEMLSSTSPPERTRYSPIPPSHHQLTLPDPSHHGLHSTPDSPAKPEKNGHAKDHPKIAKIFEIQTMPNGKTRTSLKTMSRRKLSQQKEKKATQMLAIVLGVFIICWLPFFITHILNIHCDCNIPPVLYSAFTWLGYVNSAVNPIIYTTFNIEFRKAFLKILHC

Ki: 3.9 nM
SMILES: CCN1CCCC1CNc1nncc2ccc(OC)c(OC)c12 (stereo unspecified)
